Source: publication PMC10178848, “Modulating fast skeletal muscle contraction protects skeletal muscle in animal models of Duchenne muscular dystrophy” (The Journal of Clinical Investigation, 2023)

Test system: GRMD plasma proteins
Type: in vivo, dog
Conditions: EDG-5506 treatment to GRMD baseline; Increased in GRMD

O=c1ccc(-c2cnc(OCC(F)(F)F)nc2)nn1Cc1cncc(F)c1 [EDG-5506]
Change from GRMD Baseline (fraction): Fibronectin Fragment 4 (FN1): -0.0853 fraction
Change from GRMD Baseline (fraction): Follistatin (FST): -0.1433 fraction
Change from GRMD Baseline (fraction): Fractalkine (CX3CL1): -0.1153 fraction
Change from GRMD Baseline (fraction): Fructose-bisphosphate aldolase A (ALDOA): 0.1605 fraction
Change from GRMD Baseline (fraction): G2/mitotic-specific cyclin-B1 (CCNB1): -0.0054 fraction
Change from GRMD Baseline (fraction): Galectin-4 (LGALS4): -0.0907 fraction
Change from GRMD Baseline (fraction): Galectin-7 (LGALS7): -0.1308 fraction
Change from GRMD Baseline (fraction): Glucose-6-phosphate isomerase (GPI): -0.4647 fraction
Change from GRMD Baseline (fraction): Glyceraldehyde-3-phosphate dehydrogenase (GAPDH): -0.5078 fraction
Change from GRMD Baseline (fraction): Glycogen synthase kinase-3 alpha/beta (GSK3A GSK3B): -0.3338 fraction
Change from GRMD Baseline (fraction): Granulocyte-macrophage colony-stimulating factor (CSF2): -0.2326 fraction
Change from GRMD Baseline (fraction): Growth factor receptor-bound protein 2 (GRB2): -0.3399 fraction
Change from GRMD Baseline (fraction): Growth/differentiation factor 5 (GDF5): -0.0403 fraction
Change from GRMD Baseline (fraction): Heat shock 70 kDa protein 1A (HSPA1A): -0.2859 fraction
Change from GRMD Baseline (fraction): Heat shock cognate 71 kDa protein (HSPA8): -0.3616 fraction
Change from GRMD Baseline (fraction): Heat shock protein HSP 90-alpha/beta (HSP90AA1 HSP90AB1): -0.1032 fraction
Change from GRMD Baseline (fraction): Heat shock protein HSP 90-beta (HSP90AB1): -0.0167 fraction
Change from GRMD Baseline (fraction): Heat shock protein beta-1 (HSPB1): -0.0454 fraction
Change from GRMD Baseline (fraction): Hepatoma-derived growth factor-related protein 2 (HDGFRP2): -0.0887 fraction
Change from GRMD Baseline (fraction): Heterogeneous nuclear ribonucleoprotein A/B (HNRNPAB): -0.2641 fraction
Change from GRMD Baseline (fraction): Heterogeneous nuclear ribonucleoprotein Q (SYNCRIP): -0.2959 fraction
Change from GRMD Baseline (fraction): Heterogeneous nuclear ribonucleoproteins A2/B1 (HNRNPA2B1): -0.2792 fraction
Change from GRMD Baseline (fraction): Hexokinase-2 (HK2): -0.2831 fraction
Change from GRMD Baseline (fraction): Histidine triad nucleotide-binding protein 1 (HINT1): -0.1184 fraction
Change from GRMD Baseline (fraction): Histone H1.2 (HIST1H1C): -0.2004 fraction
Change from GRMD Baseline (fraction): Histone deacetylase 8 (HDAC8): -0.1223 fraction
Change from GRMD Baseline (fraction): Homeodomain-interacting protein kinase 3 (HIPK3): 0.4673 fraction
Change from GRMD Baseline (fraction): Immunoglobulin superfamily containing leucine-rich repeat protein 2 (ISLR2): 0.163 fraction
Change from GRMD Baseline (fraction): Inducible T-cell costimulator (ICOS): -0.069 fraction
Change from GRMD Baseline (fraction): Inosine-5'-monophosphate dehydrogenase 2 (IMPDH2): -0.2973 fraction
Change from GRMD Baseline (fraction): Insulin-degrading enzyme (IDE): -0.2351 fraction
Change from GRMD Baseline (fraction): Insulin-like growth factor-binding protein 3 (IGFBP3): -0.1253 fraction
Change from GRMD Baseline (fraction): Intercellular adhesion molecule 5 (ICAM5): 0.2028 fraction
Change from GRMD Baseline (fraction): Interferon alpha-10 (IFNA10): 0.155 fraction
Change from GRMD Baseline (fraction): Interleukin-1 alpha (IL1A): -0.061 fraction
Change from GRMD Baseline (fraction): Interleukin-1 receptor-like 2 (IL1RL2): -0.0194 fraction
Change from GRMD Baseline (fraction): Interleukin-15 receptor subunit alpha (IL15RA): -0.1087 fraction
Change from GRMD Baseline (fraction): Interleukin-17F (IL17F): -0.0145 fraction
Change from GRMD Baseline (fraction): Interleukin-37 (IL37): -0.0864 fraction
Change from GRMD Baseline (fraction): Junctional adhesion molecule B (JAM2): -0.0925 fraction
Change from GRMD Baseline (fraction): Junctional adhesion molecule C (JAM3): -0.1846 fraction
Change from GRMD Baseline (fraction): Kallikrein-6 (KLK6): -0.0597 fraction
Change from GRMD Baseline (fraction): Kallikrein-12 (KLK12): 0.0192 fraction
Change from GRMD Baseline (fraction): Kallikrein-14 (KLK14): -0.165 fraction
Change from GRMD Baseline (fraction): Kin of IRRE-like protein 3 (KIRREL3): -0.0664 fraction
Change from GRMD Baseline (fraction): Kremen protein 2 (KREMEN2): -0.1517 fraction
Change from GRMD Baseline (fraction): Kynureninase (KYNU): -0.1154 fraction
Change from GRMD Baseline (fraction): L-Selectin (SELL): -0.2072 fraction
Change from GRMD Baseline (fraction): L-lactate dehydrogenase B chain (LDHB): -0.3998 fraction
Change from GRMD Baseline (fraction): Leucine-rich repeat serine/threonine-protein kinase 2 (LRRK2): -0.1394 fraction
Change from GRMD Baseline (fraction): Leucine-rich repeat transmembrane protein FLRT1 (FLRT1): -0.1359 fraction
Change from GRMD Baseline (fraction): Low affinity immunoglobulin epsilon Fc receptor (FCER2): -0.0521 fraction
Change from GRMD Baseline (fraction): MAP kinase-activated protein kinase 2 (MAPKAPK2): -0.3216 fraction
Change from GRMD Baseline (fraction): MAP kinase-activated protein kinase 3 (MAPKAPK3): -0.2837 fraction
Change from GRMD Baseline (fraction): Macrophage scavenger receptor types I and II (MSR1): -0.0382 fraction
Change from GRMD Baseline (fraction): Malate dehydrogenase, cytoplasmic (MDH1): -0.1486 fraction
Change from GRMD Baseline (fraction): Methionine aminopeptidase 2 (METAP2): -0.1671 fraction
Change from GRMD Baseline (fraction): Microtubule-associated protein tau (MAPT): -0.2425 fraction
Change from GRMD Baseline (fraction): Mitogen-activated protein kinase 3 (MAPK3): -0.2851 fraction
Change from GRMD Baseline (fraction): Mitogen-activated protein kinase 8 (MAPK8): -0.2995 fraction
Change from GRMD Baseline (fraction): Mitogen-activated protein kinase 12 (MAPK12): -0.3528 fraction
Change from GRMD Baseline (fraction): Mitogen-activated protein kinase 14 (MAPK14): -0.2706 fraction
Change from GRMD Baseline (fraction): Mothers against decapentaplegic homolog 3 (SMAD3): -0.0452 fraction
Change from GRMD Baseline (fraction): Myeloblastin (PRTN3): 0.0617 fraction
Change from GRMD Baseline (fraction): Myoglobin (MB): -0.422 fraction
Change from GRMD Baseline (fraction): Myosin-binding protein C, slow-type (MYBPC1): 0.1932 fraction
Change from GRMD Baseline (fraction): NKG2D ligand 2 (ULBP2): -0.0329 fraction
Change from GRMD Baseline (fraction): NSFL1 cofactor p47 (NSFL1C): -0.3479 fraction
Change from GRMD Baseline (fraction): Natural cytotoxicity triggering receptor 3 (NCR3): -0.0271 fraction
Change from GRMD Baseline (fraction): Neuronal cell adhesion molecule (NRCAM): 0.199 fraction
Change from GRMD Baseline (fraction): Neutral ceramidase (ASAH2): -0.1226 fraction
Change from GRMD Baseline (fraction): Nucleoside diphosphate kinase A (NME1): -0.3054 fraction
Change from GRMD Baseline (fraction): OCIA domain-containing protein 1 (OCIAD1): -0.019 fraction
Change from GRMD Baseline (fraction): Oncostatin-M (OSM): -0.0794 fraction
Change from GRMD Baseline (fraction): Opioid-binding protein/cell adhesion molecule (OPCML): -0.0946 fraction
Change from GRMD Baseline (fraction): PIK3CA/PIK3R1 (PIK3CA PIK3R1): -0.2992 fraction
Change from GRMD Baseline (fraction): Parathyroid hormone-related protein (PTHLH): -0.1165 fraction
Change from GRMD Baseline (fraction): Peptidyl-prolyl cis-trans isomerase E (PPIE): -0.2567 fraction
Change from GRMD Baseline (fraction): Peroxiredoxin-1 (PRDX1): -0.376 fraction
Change from GRMD Baseline (fraction): Peroxiredoxin-6 (PRDX6): -0.4044 fraction
Change from GRMD Baseline (fraction): Phosphatidylethanolamine-binding protein 1 (PEBP1): -0.1964 fraction
Change from GRMD Baseline (fraction): Phosphoglucomutase-1 (PGM1): -0.1676 fraction
Change from GRMD Baseline (fraction): Phosphoglycerate mutase 1 (PGAM1): 0.2377 fraction
Change from GRMD Baseline (fraction): Plasma serine protease inhibitor (SERPINA5): -0.1552 fraction
Change from GRMD Baseline (fraction): Platelet glycoprotein 4 (CD36): -0.0717 fraction
Change from GRMD Baseline (fraction): Platelet-activating factor acetylhydrolase (PLA2G7): -0.1993 fraction
Change from GRMD Baseline (fraction): Platelet-derived growth factor receptor alpha (PDGFRA): -0.052 fraction
Change from GRMD Baseline (fraction): Proliferating cell nuclear antigen (PCNA): -0.2439 fraction
Change from GRMD Baseline (fraction): Protein NOV homolog (NOV): -0.0815 fraction
Change from GRMD Baseline (fraction): Protein S100-A12 (S100A12): -0.0694 fraction
Change from GRMD Baseline (fraction): RAC-alpha/beta/gamma serine/threonine-protein kinase (AKT1 AKT2 AKT3): -0.3391 fraction
Change from GRMD Baseline (fraction): RAC-beta serine/threonine-protein kinase (AKT2): -0.2794 fraction
Change from GRMD Baseline (fraction): Rab GDP dissociation inhibitor beta (GDI2): -0.3851 fraction
Change from GRMD Baseline (fraction): Receptor tyrosine-protein kinase erbB-3 (ERBB3): 0.0234 fraction
Change from GRMD Baseline (fraction): Receptor-type tyrosine-protein kinase FLT3 (FLT3): -0.1824 fraction
Change from GRMD Baseline (fraction): Renin (REN): -0.0274 fraction
Change from GRMD Baseline (fraction): Retinoblastoma-associated protein (RB1): -0.0961 fraction
Change from GRMD Baseline (fraction): S-formylglutathione hydrolase (ESD): -0.2877 fraction
Change from GRMD Baseline (fraction): Serine/threonine-protein kinase 17B (STK17B): -0.0905 fraction
Change from GRMD Baseline (fraction): Serine/threonine-protein kinase Chk2 (CHEK2): 0.2279 fraction
Change from GRMD Baseline (fraction): Serine/threonine-protein kinase WNK3 (WNK3): -0.1692 fraction
Change from GRMD Baseline (fraction): Serine/threonine-protein kinase receptor R3 (ACVRL1): -0.0902 fraction
Change from GRMD Baseline (fraction): Small nuclear ribonucleoprotein F (SNRPF): -0.0313 fraction
Change from GRMD Baseline (fraction): Somatostatin-28 (SST): 0.1915 fraction
Change from GRMD Baseline (fraction): T-lymphocyte activation antigen CD80 (CD80): -0.0767 fraction
Change from GRMD Baseline (fraction): Thymic stromal lymphopoietin (TSLP): -0.0628 fraction
Change from GRMD Baseline (fraction): Thyroid peroxidase (TPO): -0.1126 fraction
Change from GRMD Baseline (fraction): Tissue factor pathway inhibitor (TFPI): 0.0479 fraction
Change from GRMD Baseline (fraction): Transcription factor AP-1 (JUN): -0.1004 fraction
Change from GRMD Baseline (fraction): Transketolase (TKT): -0.3602 fraction
Change from GRMD Baseline (fraction): Translationally-controlled tumor protein (TPT1): -0.3694 fraction
Change from GRMD Baseline (fraction): Triosephosphate isomerase (TPI1): -0.5129 fraction
Change from GRMD Baseline (fraction): Tropomyosin beta chain (TPM2): -0.0815 fraction
Change from GRMD Baseline (fraction): Troponin I, cardiac muscle (TNNI3): 0.0173 fraction
Change from GRMD Baseline (fraction): Troponin I, fast skeletal muscle (TNNI2): 0.1681 fraction
Change from GRMD Baseline (fraction): Troponin T, cardiac muscle (TNNT2): 0.0317 fraction
Change from GRMD Baseline (fraction): Tumor necrosis factor ligand superfamily member 11 (TNFSF11): -0.1211 fraction
Change from GRMD Baseline (fraction): Tumor necrosis factor receptor superfamily member 1B (TNFRSF1B): -0.1149 fraction
Change from GRMD Baseline (fraction): Tumor necrosis factor receptor superfamily member 3 (LTBR): -0.1112 fraction
